Results published in paper PMC8158245, “Novel chalcone/aryl carboximidamide hybrids as potent anti-inflammatory via inhibition of prostaglandin E2 and inducible NO synthase activities: design, synthesis, molecular docking studies and ADMET prediction” (Journal of Enzyme Inhibition and Medicinal Chemistry, 2021).
“And” between values parts separate entries of the source, which are not always exact repeats. Identical values can stand only once.

What was measured:
[1] = test system: LPS-induced NO production in RAW 264.7 cells; assay: Griess assay for NO release from LPS-stimulated RAW 264.7 cells; assay type: cell-based; details: Mus musculus, RAW264.7; for inhibition at 5 µM: compounds at 5 µM, 2 h before LPS, RAW 264.7 cells, read-out: NO Inhibition rates (%) ± SD; for IC50: LPS-induced RAW 264.7 cells
Experimental: Equal volumes of Griess reagent and the supernatant, obtained from treated RAW264.7 cells with the compounds 2 h before LPS induction, were mixed for 10 min at room temperature in the dark. The absorbance was measured at 540 nm using ELISA plate reader and the nitrite concentration was calculated from sodium nitrite standard curve. The percentage inhibition (%) is calculated as absorbance at 540 nm of (LPS-compounds)/absorbance at 540 nm of (LPS-control) ×100[47]^,[48].

[2] = test system: PGE2 production in RAW 264.7 cells; assay: PGE2 concentration by ELISA in LPS-treated RAW 264.7 cells; assay type: cell-based; details: Mus musculus, RAW264.7; LPS-induced RAW 264.7 cells
Experimental: After seeding and incubation of RAW 264.7 cells for 24 h, then the cells were treated with the compounds (4c, 4d, 6a, 6c, 6d and 6e) at different concentrations and with LPS (1 µg/ml) for another 24 h. The concentration of prostaglandin E2 (PGE2) was measured in the culture media using ELISA kit (R&D Systems, Minneapolis, MN)[50].

[3] = test system: carrageenan-induced paw edoema; assay: Carrageenan-induced rat paw edoema; assay type: in vivo, Wistar albino rats; details: for % of edoema inhibition (% mean ± SEM), 1 h / % of edoema inhibition (% mean ± SEM), 2 h / % of edoema inhibition (% mean ± SEM), 3 h / % of edoema inhibition (% mean ± SEM), 4 h: rat, 50 mg/kg oral; for % of edoema inhibition (% mean ± SEM), 1 h: 1 h after carrageenan; for % of edoema inhibition (% mean ± SEM), 2 h: 2 h after carrageenan; for % of edoema inhibition (% mean ± SEM), 3 h: 3 h after carrageenan; for % of edoema inhibition (% mean ± SEM), 4 h: 4 h after carrageenan
Experimental: The anti-inflammatory activity of the inspiring active compounds in vitro (4c, 4d, 6a, 6c, 6d and 6e) were further estimated in vivo using the carrageenan-induced paw edoema test. […] The paw thickness was assessed using Vernier calliper after carrageenan injection for 1,2, 3 and 4 h. Wistar albino rats (males weighing 120–140 g, six rats per group) were grouped as follows: Group 1 (Control) rats were received the vehicle. […] The percentage inhibition of edoema thickness was calculated at each time interval in comparison to the control group.

bovine COX-1 = molecular target: T1, bovine COX-1 (Ovis aries, UniProt P05979); assay: In vitro COX-1 inhibition assay (Cayman kit); assay type: biochemical
T1 construct: purchased Cayman Chemical 560101
T1 sequence (P05979 25-600): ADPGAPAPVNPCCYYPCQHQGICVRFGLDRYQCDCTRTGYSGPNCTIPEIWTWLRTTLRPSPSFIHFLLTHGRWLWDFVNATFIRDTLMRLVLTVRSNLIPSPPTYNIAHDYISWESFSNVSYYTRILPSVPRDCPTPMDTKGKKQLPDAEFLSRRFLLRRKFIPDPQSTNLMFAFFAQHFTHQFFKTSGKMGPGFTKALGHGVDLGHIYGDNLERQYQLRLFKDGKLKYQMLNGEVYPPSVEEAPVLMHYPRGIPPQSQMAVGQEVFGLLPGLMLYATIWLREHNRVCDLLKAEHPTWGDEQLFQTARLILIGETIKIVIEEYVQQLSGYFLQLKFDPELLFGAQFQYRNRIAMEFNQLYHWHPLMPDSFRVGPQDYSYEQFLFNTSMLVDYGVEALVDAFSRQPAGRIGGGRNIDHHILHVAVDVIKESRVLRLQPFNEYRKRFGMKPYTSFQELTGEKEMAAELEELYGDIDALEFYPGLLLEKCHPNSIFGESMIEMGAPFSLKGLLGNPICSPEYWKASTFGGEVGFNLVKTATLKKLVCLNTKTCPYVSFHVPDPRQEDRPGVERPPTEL

COX-2 = assay: In vitro COX-2 inhibition assay (Cayman kit); assay type: biochemical, bovine; details: selectivity index from COX 1 and COX 2 IC50
[4] = MTT cytotoxicity assay on RAW 264.7 cells; assay type: cell-based; details: mouse; for IC50 at 20 h: with LPS; for IC50: without LPS
Experimental: MTT assay was used to assess the cell viability of RAW 264.7 cells cultured in RPMI-1640 complete media. […] Afterwards, 5 µl of MTT solution were added and incubated for further 4 h. Finally, 150 ul of dimethyl sulfoxide (DMSO) were added and the optical density was assessed at 570 nm using an ELISA plate reader.

iNOS = molecular target: T2, iNOS (Mus musculus, UniProt P29477); assay: iNOS enzymatic activity in LPS-induced RAW 264.7 cells; assay type: cell-based
T2 construct: endogenous in cells; host or cells: RAW 264.7 cells induced with LPS
T2 sequence (P29477 1-1144): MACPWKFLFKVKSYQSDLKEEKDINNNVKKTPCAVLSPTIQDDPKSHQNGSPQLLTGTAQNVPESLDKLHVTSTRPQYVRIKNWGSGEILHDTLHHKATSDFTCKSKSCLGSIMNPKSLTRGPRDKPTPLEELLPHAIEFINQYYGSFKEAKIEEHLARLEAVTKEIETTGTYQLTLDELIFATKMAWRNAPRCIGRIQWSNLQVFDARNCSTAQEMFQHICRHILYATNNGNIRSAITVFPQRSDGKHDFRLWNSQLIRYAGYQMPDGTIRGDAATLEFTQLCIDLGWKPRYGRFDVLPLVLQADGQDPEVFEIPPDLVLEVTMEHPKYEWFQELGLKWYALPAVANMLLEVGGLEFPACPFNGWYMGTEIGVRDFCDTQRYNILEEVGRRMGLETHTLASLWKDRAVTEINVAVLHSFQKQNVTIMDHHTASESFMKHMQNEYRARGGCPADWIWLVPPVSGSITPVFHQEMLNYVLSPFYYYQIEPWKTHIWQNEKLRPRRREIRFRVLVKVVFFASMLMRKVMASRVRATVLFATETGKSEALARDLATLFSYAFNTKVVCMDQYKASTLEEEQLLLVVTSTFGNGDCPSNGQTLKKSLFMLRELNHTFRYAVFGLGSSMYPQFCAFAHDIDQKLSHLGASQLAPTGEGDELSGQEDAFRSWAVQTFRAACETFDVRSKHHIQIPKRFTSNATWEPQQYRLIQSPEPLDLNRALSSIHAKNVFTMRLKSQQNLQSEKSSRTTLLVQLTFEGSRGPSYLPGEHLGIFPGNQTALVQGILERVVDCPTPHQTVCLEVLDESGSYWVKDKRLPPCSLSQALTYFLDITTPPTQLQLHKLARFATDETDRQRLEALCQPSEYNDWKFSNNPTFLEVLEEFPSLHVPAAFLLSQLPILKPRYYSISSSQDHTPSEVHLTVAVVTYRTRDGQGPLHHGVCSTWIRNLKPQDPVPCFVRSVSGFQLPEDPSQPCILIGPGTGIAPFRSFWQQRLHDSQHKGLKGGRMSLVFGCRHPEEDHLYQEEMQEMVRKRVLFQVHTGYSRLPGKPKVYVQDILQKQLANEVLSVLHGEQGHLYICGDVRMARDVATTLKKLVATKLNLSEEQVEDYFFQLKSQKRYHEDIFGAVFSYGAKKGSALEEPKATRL
Experimental: Then, the NOS assay reaction solution (100 µl/well) was added and incubated for an extra 2 h at 37 °C. The fluorescence with excitation wavelength at 485 nm and emission wavelength at 528 nm was measured using a fluorescent microplate reader.

[5] = four hours after carrageenan injection
[6] = listed as indomethacin, 50 mg/kg

Structure (SMILES) | inhibition at 5 µM [1] [%] | melting point [°C] | IC50 [1] [µM] | IC50 [2] [µM] | % of edoema inhibition (% mean ± SEM), 1 h [3] [%] | % of edoema inhibition (% mean ± SEM), 2 h [3] [%] | % of edoema inhibition (% mean ± SEM), 3 h ([3]; 50 mg/kg) | % of edoema inhibition (% mean ± SEM), 4 h ([3]; 50 mg/kg) | IC50 at 20 h [4] [µM] | IC50 [4] [µM] | IC50 (iNOS) [µM] | other results
COc1ccc(/C=C/C(=O)c2ccc(OCC(=O)O/N=C(\N)c3ccccc3)cc2)cc1 [Compound 4a, N’-(2-{4-[(2E)-3-(4-Methoxyphenyl)prop-2-enoyl]phenoxy}acetoxy) benzenecarboximidamide] | 41.9 ± 1.4 | 164 to 166 | – | – | – | – | – | – | – | – | – | –
COc1ccc(/C=C/C(=O)c2ccc(OCC(=O)ON=C(N)c3ccc(OC)cc3)cc2)cc1 [Compound 4c, N’-(2-{4-[(2E)-3-(4-Methoxyphenyl)prop-2-enoyl]phenoxy}acetoxy)-4-methoxybenzenecarboximidamide] | 62.3 ± 1.9 | – | 8.61 | 0.0323 | 11.21 ± 2.41 | 33.62 ± 2.69 | 57.71% and 57.71 ± 2.21% | 69.86% and 69.86 ± 3.51% | > 80 | > 80 | 3.62 | IC50 (bovine COX-1): 19.9 ± 1.03 µM; SI (COX-2): 6.06
COc1ccc(C(=O)/C=C/c2ccc(OCC(=O)O/N=C(\N)c3ccc(OC)c(OC)c3)cc2)cc1 [Compound 6d, N’-(2-{4-[(1E)-3-(4-Methoxyphenyl)-3-oxoprop-2-en-1-yl]phenoxy}acetoxy) -3,4-dimethoxybenzenecarboximidamide] | 78.2 ± 3.4 | – | 4.36 | 0.0212 | 13.25 ± 2.04 | 38.43 ± 3.62 | 65.31% and 65.31 ± 2.64% | 78.51% and 78.53% and 78.53 ± 3.28% | > 80 | > 80 | 1.91 | anti-inflammatory activity relative to celecoxib [3, 5]: ~7 fold; anti-inflammatory activity relative to indomethacin [3, 5]: ~1.5 fold; IC50 (bovine COX-1): 17.8 ± 0.93 µM; SI (COX-2): 0.17
Cc1ccc(-c2cc(C(F)(F)F)nn2-c2ccc(S(N)(=O)=O)cc2)cc1 [Celecoxib, reference compound] | – | – | – | – | 10.61 ± 2.59 | 25.43 ± 3.29 | 46.42 ± 2.87% | 12.32 ± 2.42% | – | – | – | % of edoema inhibition (% mean ± SEM), 3 h [3]: 46.42%; % of edoema inhibition (% mean ± SEM), 4 h ([3]; listed as celecoxib, 50 mg/kg): 12.32%
COc1ccc(C(=O)/C=C/c2ccc(OCC(=O)O/N=C(\N)c3ccc4ccccc4c3)cc2)cc1 [Compound 6f] | 29.4 ± 2.5 | 178 to 179 | – | – | – | – | – | – | – | – | – | –
COc1ccc(/C=C/C(=O)c2ccc(OCC(=O)ON=C(N)c3ccc(Cl)cc3)cc2)cc1 [Compound 4b, N’-(2-{4-[(2E)-3-(4-Methoxyphenyl)prop-2-enoyl]phenoxy}acetoxy)-4-chlorobenzenecarboximidamide] | 47.6 ± 3.6 | 180 to 182 | – | – | – | – | – | – | – | – | – | –
COc1ccc(C(=O)/C=C/c2ccc(OCC(=O)ON=C(N)c3ccc(OC)cc3)cc2)cc1 [Compound 6c, N’-(2-{4-[(1E)-3-(4-Methoxyphenyl)-3-oxoprop-1-en-1-yl]phenoxy}acetoxy)-4-methoxybenzenecarboximidamide] | 67.1 ± 2.4 | – | 5.92 | 0.0275 | 11.42 ± 1.75 | 28.44 ± 2.75 | 54.36% and 54.36 ± 2.34% | 62.21% and 62.21 ± 3.46% | > 80 | > 80 | 2.45 | IC50 (bovine COX-1): 64.4 ± 3.35 µM; SI (COX-2): 7.79
COc1ccc2c(c1)c(CC(=O)O)c(C)n2C(=O)c1ccc(Cl)cc1 [Indomethacin, reference compound] | 25.5 | – | 45.7 | 0.0766 | 28.03 ± 1.35 | 45.27 ± 2.48 | 63.71 ± 3.48% | 56.27 ± 2.14% | > 80 | > 80 | 24.6 | % of edoema inhibition (% mean ± SEM), 3 h [3, 6]: 63.71%; % of edoema inhibition (% mean ± SEM), 4 h [3, 6]: 56.27%
COc1ccc(C(=O)/C=C/c2ccc(OCC(=O)ON=C(N)c3ccc(Cl)cc3)cc2)cc1 [Compound 6b, N’-(2-{4-[(1E)-3-(4-Methoxyphenyl)-3-oxoprop-1-en-1-yl]phenoxy}acetoxy) -4-chlorobenzenecarboximidamide] | 49.6 ± 2.3 | 192 to 193 | – | – | – | – | – | – | – | – | – | –
COc1ccc(/C=C/C(=O)c2ccc(OCC(=O)ON=C(N)c3ccc([N+](=O)[O-])cc3)cc2)cc1 [Compound 4e, N’-(2-{4-[(2E)-3-(4-Methoxyphenyl)prop-2-enoyl]phenoxy}acetoxy)-4-nitrobenzenecarboximidamide] | 44.1 ± 2.8 | 184 to 186 | – | – | – | – | – | – | – | – | – | % of edoema inhibition (% mean ± SEM), 3 h [3]: 39.26%
COc1ccc(/C=C/C(=O)c2ccc(OCC(=O)O/N=C(\N)c3ccc4ccccc4c3)cc2)cc1 [Compound 4f, N’-(2-{4-[(2E)-3-(4-Methoxyphenyl)prop-2-enoyl]phenoxy}acetoxy) naphthalene-2-carboximidamide] | 31.2 ± 2.2 | 176 to 178 | – | – | – | – | – | – | – | – | – | –
